Toxic doses and inconclusive results are not listed. No stated cut-off is given here; in the data, active means T/C of 150% or more; inactive means T/C below 125%.
System: L1210 leukemia ip in BDF1 mice, survival T/C
Experiment: NCI In Vivo Anticancer Drug Screen. Data for tumor model L1210 Leukemia (intraperitoneal) in B6D2F1 (BDF1) mice
Conditions: endpoint: mean survival time, higher = longer survival
Summary of the method: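 Tumor was transplanted into mice, which were then dosed with test compound or vehicle alone. Survival was recorded for each group, and the treated figure was expressed relative to the control figure.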

[1] = dose: 25.0 mg/kg/injection, schedule: Q04DX002 (ip), vehicle: saline with Tween-80
[2] = dose: 50.0 mg/kg/injection, schedule: Q04DX002 (ip), vehicle: saline with Tween-80
[3] = dose: 100.0 mg/kg/injection, schedule: Q04DX002 (ip), vehicle: saline with Tween-80
[4] = dose: 100.0 mg/kg/injection, schedule: Q04DX003 (ip), vehicle: saline with Tween-80
[5] = dose: 200.0 mg/kg/injection, schedule: Q04DX002 (ip), vehicle: saline with Tween-80
[6] = dose: 200.0 mg/kg/injection, schedule: Q04DX003 (ip), vehicle: saline with Tween-80
[7] = dose: 400.0 mg/kg/injection, schedule: Q04DX003 (ip), vehicle: saline with Tween-80
[8] = dose: 12.5 mg/kg/injection, schedule: Q01DX009 (ip), vehicle: saline
[9] = dose: 25.0 mg/kg/injection, schedule: Q01DX009 (ip), vehicle: saline
[10] = dose: 50.0 mg/kg/injection, schedule: Q01DX009 (ip), vehicle: saline
[11] = dose: 100.0 mg/kg/injection, schedule: Q01DX009 (ip), vehicle: Klucel (hydroxypropylcellulose) (HPC)
[12] = dose: 100.0 mg/kg/injection, schedule: Q04DX003 (ip), vehicle: Klucel (hydroxypropylcellulose) (HPC)
[13] = dose: 200.0 mg/kg/injection, schedule: Q01DX009 (ip), vehicle: Klucel (hydroxypropylcellulose) (HPC)
[14] = dose: 200.0 mg/kg/injection, schedule: Q04DX003 (ip), vehicle: Klucel (hydroxypropylcellulose) (HPC)
[15] = dose: 400.0 mg/kg/injection, schedule: Q01DX009 (ip), vehicle: Klucel (hydroxypropylcellulose) (HPC)
[16] = dose: 400.0 mg/kg/injection, schedule: Q04DX003 (ip), vehicle: Klucel (hydroxypropylcellulose) (HPC)
[17] = dose: 12.5 mg/kg/injection, schedule: Q04DX003 (ip), vehicle: saline
[18] = dose: 25.0 mg/kg/injection, schedule: Q04DX003 (ip), vehicle: saline
[19] = dose: 100.0 mg/kg/injection, schedule: Q04DX003 (ip), vehicle: saline
[20] = dose: 100.0 mg/kg/injection, schedule: Q01DX001 (ip), vehicle: saline
[21] = dose: 200.0 mg/kg/injection, schedule: Q01DX001 (ip), vehicle: saline

Measured: T/C

[Br][Ge]([c]1ccccc1)([c]1ccccc1)[c]1ccccc1
inactive: [1] 104 % of control | [2] 96 % of control | [3] 104 % of control | [4] 94 % of control | [5] 93 % of control | [6] 94 % of control | [7] 90 % of control

CCCCC(CC)C(=O)N1CCOCC1 (centres undefined)
inactive: [4] 120 % of control | [6] 114 % of control | [7] 107 % of control

CCN(CC)CC(=O)NCC(CCCN(C)C)(CCCN(C)C)c1cccc2ccccc12
inactive: [8] 96 % of control | [9] 91 % of control | dose: 25.0 mg/kg/injection, schedule: Q04DX002 (ip), vehicle: saline 93 % of control | [10] 86 % of control | dose: 50.0 mg/kg/injection, schedule: Q04DX002 (ip), vehicle: saline 100 % of control

CCO/C=C1\SC(=S)N(CCc2ccc(OC)c(OC)c2)C1=O
inactive: [11] 94 % of control | [12] 102 % of control | [13] 93 % of control | [14] 102 % of control | [15] 103 % of control | [16] 102 % of control

Oc1ccc(Br)cc1C=Nc1cccc(C(F)(F)F)c1
inactive: [3] 102 % of control | [5] 100 % of control | dose: 400.0 mg/kg/injection, schedule: Q04DX002 (ip), vehicle: saline with Tween-80 96 % of control

Brc1ccc(C2CCCCC2)cc1
inactive: [4] 97 % of control | [6] 93 % of control | [7] 101 % of control

O=C(NCCCl)NC1CCCCC1
inactive: dose: 100.0 mg/kg/injection, schedule: Q01DX001 (ip), vehicle: Klucel (hydroxypropylcellulose) (HPC) 88 % of control | dose: 200.0 mg/kg/injection, schedule: Q01DX001 (ip), vehicle: Klucel (hydroxypropylcellulose) (HPC) 89 % of control | dose: 400.0 mg/kg/injection, schedule: Q01DX001 (ip), vehicle: Klucel (hydroxypropylcellulose) (HPC) 100 % of control

NC(CC(=O)NCCc1ccccc1)C(=O)NCCc1ccccc1 (centres undefined)
inactive: dose: 75.0 mg/kg/injection, schedule: Q01DX001 (ip), vehicle: other 102 % of control | dose: 150.0 mg/kg/injection, schedule: Q01DX001 (ip), vehicle: other 97 % of control | dose: 300.0 mg/kg/injection, schedule: Q01DX001 (ip), vehicle: other 97 % of control

Nc1[nH]c(=O)cc(O)c1N
inactive: [17] 108 % of control | [18] 105 % of control | [19] 98 % of control

S=c1nc[nH]c2c1N=CNN2
inactive: dose: 5.0 mg/kg/injection, schedule: Q01DX001 (ip), vehicle: carboxymethylcellulose (CMC) 115 % of control | dose: 10.0 mg/kg/injection, schedule: Q01DX001 (ip), vehicle: carboxymethylcellulose (CMC) 90 % of control | dose: 20.0 mg/kg/injection, schedule: Q01DX001 (ip), vehicle: carboxymethylcellulose (CMC) 101 % of control | dose: 40.0 mg/kg/injection, schedule: Q01DX001 (ip), vehicle: carboxymethylcellulose (CMC) 96 % of control

CCCCCCCCOC(=O)c1ccccc1C(=O)OCCCCCCCC
inactive: [11] 96 % of control | [12] 97 % of control | [13] 94 % of control | [14] 93 % of control | [15] 96 % of control | [16] 92 % of control

CC(C)/C=N\O
inactive: [4] 104 % of control | [6] 123 % of control | [7] 109 % of control

CC(C)(C)N(CSc1ccc(Cl)cc1)CSc1ccc(Cl)cc1
inactive: [20] 104 % of control | [21] 104 % of control

CN1CCN(C(c2ccccc2)c2ccc(Cl)cc2)CC1 (centres undefined)
inactive: dose: 6.25 mg/kg/injection, schedule: Q01DX009 (ip), vehicle: saline 102 % of control | [8] 92 % of control | [17] 95 % of control | [9] 94 % of control | [18] 111 % of control | [10] 100 % of control | dose: 50.0 mg/kg/injection, schedule: Q04DX003 (ip), vehicle: saline 90 % of control | [19] 97 % of control

COc1ccc(/C=C\C(=O)NCCCCNC(=O)/C=C/c2ccc(OC)cc2)cc1
inactive: [20] 101 % of control | [21] 88 % of control

CN(C)C=C1C(=O)NC(=O)NC1=O
inactive: dose: 25.0 mg/kg/injection, schedule: Q01DX001 (ip), vehicle: saline 96 % of control | [9] 95 % of control | dose: 50.0 mg/kg/injection, schedule: Q01DX001 (ip), vehicle: saline 103 % of control | [10] 106 % of control | [20] 102 % of control | dose: 100.0 mg/kg/injection, schedule: Q01DX009 (ip), vehicle: saline 106 % of control

O=C1c2ccccc2C(=O)c2c(Nc3ccccc3)ccc(NCCO)c21
inactive: [20] 102 % of control | [21] 100 % of control | dose: 400.0 mg/kg/injection, schedule: Q01DX001 (ip), vehicle: saline 97 % of control

CCCC[n+]1cc(C(N)=O)cc2ccccc21
inactive: dose: 75.0 mg/kg/injection, schedule: Q01DX001 (ip), vehicle: saline 96 % of control | dose: 150.0 mg/kg/injection, schedule: Q01DX001 (ip), vehicle: saline 95 % of control

CN=C(c1ccc(NC(=O)c2ccc(C(=O)Nc3ccc(C(=NC)N(C)c4ccccc4)cc3)cc2)cc1)N(C)c1ccccc1
inactive: dose: 0.94 mg/kg/injection, schedule: Q01DX Z (ip), vehicle: saline 106 % of control | dose: 1.88 mg/kg/injection, schedule: Q01DX Z (ip), vehicle: saline 104 % of control | dose: 3.75 mg/kg/injection, schedule: Q01DX Z (ip), vehicle: saline 90 % of control

N#Cc1ccc(-c2ccccc2)cc1
inactive: dose: 50.0 mg/kg/injection, schedule: Q04DX002 (ip), vehicle: other 103 % of control | dose: 100.0 mg/kg/injection, schedule: Q04DX002 (ip), vehicle: other 95 % of control | dose: 200.0 mg/kg/injection, schedule: Q04DX002 (ip), vehicle: other 117 % of control

CCS[P+](NC1CCCCC1)(NC1CCCCC1)NC1CCCCC1
inactive: dose: 25.0 mg/kg/injection, schedule: Q01DX009 (ip), vehicle: saline with Tween-80 94 % of control | [1] 103 % of control | dose: 50.0 mg/kg/injection, schedule: Q01DX009 (ip), vehicle: saline with Tween-80 100 % of control | [2] 98 % of control | [3] 88 % of control

CC(=O)CC(=O)Nc1ccc(Cl)cc1
inactive: dose: 100.0 mg/kg/injection, schedule: Q04DX002 (ip), vehicle: Klucel (hydroxypropylcellulose) (HPC) 105 % of control | dose: 177.0 mg/kg/injection, schedule: Q04DX002 (ip), vehicle: Klucel (hydroxypropylcellulose) (HPC) 102 % of control | dose: 200.0 mg/kg/injection, schedule: Q04DX002 (ip), vehicle: Klucel (hydroxypropylcellulose) (HPC) 86 % of control | dose: 266.0 mg/kg/injection, schedule: Q04DX002 (ip), vehicle: Klucel (hydroxypropylcellulose) (HPC) 92 % of control | dose: 400.0 mg/kg/injection, schedule: Q04DX002 (ip), vehicle: Klucel (hydroxypropylcellulose) (HPC) 95 % of control | dose: 600.0 mg/kg/injection, schedule: Q04DX002 (ip), vehicle: Klucel (hydroxypropylcellulose) (HPC) 92 % of control

Reference: PubChem BioAssay AID248 (DTP/NCI, 2004)
